Measured values reported in patent US20110269942A1, “ANTIBODIES MODIFIED WITH HYDROPHOBIC MOLECULE” (DAIICHI SANKYO COMPANY, LIMITED, priority 2007, published 2011).

Columns and labels:
Jurkat cells = assay: Apoptosis-inducing activity of hydrophobic molecule-modified antibodies against Jurkat cells (cell viability from ATP level; method of Test Example 13); type: cell-based, human; conditions: 72 hr
BxPC-3 cells = assay: Apoptosis-inducing activity of hydrophobic molecule-modified antibodies against BxPC-3 cells (cell viability from ATP level); type: cell-based, human
[1] = system: human malignant melanoma cell strain A2058 cells; assay: Apoptosis-inducing activity of immunoliposomes against A2058 cells (cell viability from ATP level); type: cell-based; conditions: antibody not conjugated to an immunoliposome
Method: (§1) Jurkat cells were counted by a trypan blue staining method, and the concentration was then adjusted to 1×10^5 cells/ml with a DMEM medium (manufactured by Invitrogen Corp.; hereinafter, referred to as a DMEM medium) containing 10% fetal calf serum (manufactured by Hyclone Laboratories, Inc.). […] To this microplate, the cell suspension was inoculated in an amount of 50 μl (5×10^3 cells)/well. The plate was cultured at 37° C. for 72 hr in the presence of 5% carbon dioxide, and the ATP level of each well was measured. […] Then, the supernatant was transferred in an amount of 100 μl/well to a 96-well white microplate (manufactured by Corning Inc.), and luminescence from each well was measured using a luminometer (manufactured by Molecular Devices Corp.). […] The cell viability of each well was calculated according to the following equation:
(§2) Cell viability (%)=(Luminescence intensity of test wells−Average luminescence intensity of background wells)/(Average luminescence intensity of negative control wells−Average luminescence intensity of background wells)×100.
The apoptosis-inducing activities against human malignant melanoma cell strain A2058 cells were measured according to the method described in Test Example 1.

[2] = system: human malignant melanoma cell strain A375 cells; assay: Apoptosis-inducing activity of immunoliposomes against A375 cells (cell viability from ATP level); type: cell-based; conditions: antibody not conjugated to an immunoliposome
Method: as §1, §2
The apoptosis-inducing activities against human malignant melanoma cell strain A375 cells were measured according to the method described in Test Example 1.

[3] = system: human colon cancer strain COLO 205; assay: Antitumor activity against human colon cancer strain COLO 205-transplanted nude mice (tumor volume, rate of tumor growth); type: in vivo, nude mice BALB/cA Jcl-nu; conditions: 0.33 mg/ml, 0.1 ml per 10 g body weight i.v., Days 8, 11, 13, 15, 18, 20, 22, 25, 27
Method: The in-vivo antitumor activity of the immunoliposome prepared in Example 5 was studied. 2×10^6 cells of a human colon cancer strain COLO 205 (purchased from American Type Culture Collection) which was confirmed by quarantine to have no detectable mouse pathogenic microorganisms were hypodermically transplanted to the axillary region of nude mice BALB/cA Jcl-nu (CLEA Japan, Inc.). The immunoliposome of Example 5 was diluted, immediately before its administration, with saline (Otsuka Pharmaceutical Co., Ltd.) to 1 and 0.33 mg/ml in terms of antibody concentrations. Seven days after the transplantation, the administration of the immunoliposome of Example 5 to COLO 205 cancer-bearing mice in which the tumor successfully grafted was started. […]
The major axis and minor axis of the transplanted tumor were measured two to three times a week using an electronic vernier caliper (CD-15C; Mitutoyo Corp.). The tumor volume was determined according to the following calculation formula:
Tumor volume (mm^3)=½×minor axis^2 (mm)×major axis (mm).
Moreover, the rate of tumor growth (mm^3/day) of each individual was calculated, and the statistically significant difference was tested by a Dunnett test using the value. In this context, a P value less than 0.05 was regarded as being a significant difference among groups. […]

[4] = biological target: human DR5 (death receptor 5) (human) (UniProt O14763); assay: cell-based or functional assay
human Fas = biological target: T1, human Fas (human, UniProt P25445 26-335); assay: cell-based or functional assay
T1 sequence (looked up): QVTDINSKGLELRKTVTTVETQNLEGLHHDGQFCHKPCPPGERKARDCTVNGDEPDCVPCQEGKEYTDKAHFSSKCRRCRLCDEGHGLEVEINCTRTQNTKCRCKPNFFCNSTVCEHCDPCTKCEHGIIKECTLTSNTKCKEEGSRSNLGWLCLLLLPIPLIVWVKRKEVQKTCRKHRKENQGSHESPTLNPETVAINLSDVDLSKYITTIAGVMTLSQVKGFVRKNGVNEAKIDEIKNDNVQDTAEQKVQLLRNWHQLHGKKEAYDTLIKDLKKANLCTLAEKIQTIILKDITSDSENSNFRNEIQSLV

“Example 45: DSPE-PEG3400-modified hTRA-8 Fullbody (Lys)” was tested, and the “apoptosis-inducing activity compared with that of secondary antibody-cross-linked hTRA-8” value (Jurkat cells) was “stronger”.

In the case of “Example 48: DSPE-PEG2000-modified hTRA-8 F(ab′)2 (Lys)”, the “apoptosis-inducing activity compared with that of secondary antibody-cross-linked hTRA-8” value (BxPC-3 cells) is reported as “stronger”.

With “hTRA-8 Fab′ fragment: Fab′ obtained by reducing hTRA-8 F(ab′)2 with DTT” the “apoptosis-inducing activity (in words)” value (BxPC-3 cells; 1000, 100, 10, or 1 ng/ml) was “hardly exhibited an apoptosis-inducing activity”.

For “hTRA-8 F(ab′)2 fragment: F(ab′)2 fragment obtained by pepsin digestion of hTRA-8”, the “apoptosis-inducing activity (in words)” value (BxPC-3 cells; 1000, 100, 10, or 1 ng/ml) was “hardly exhibited an apoptosis-inducing activity”.

For “Example 43: Chol-PEG5000-modified hTRA-8 Fullbody (Lys)”, the “apoptosis-inducing activity compared with that of secondary antibody-cross-linked hTRA-8” value (Jurkat cells) was “stronger”.

“Example 42: DPPE-PEG2000-modified hTRA-8 Fullbody (Lys)” was tested, and the “apoptosis-inducing activity compared with that of secondary antibody-cross-linked hTRA-8” value (Jurkat cells) was “stronger”.

In the case of “Example 52: PEG2000-modified hTRA-8 Fullbody (Lys), hydrophobic molecule-free, water-soluble linker-modified antibody”, the “apoptosis-inducing activity (in words)” value (BxPC-3 cells; 1000, 100, 10, or 1 ng/ml) is reported as “weak”.

For “Example 41: DSPE-PEG10000-modified hTRA-8 Fullbody (Lys)”, the “apoptosis-inducing activity compared with that of secondary antibody-cross-linked hTRA-8” value (Jurkat cells) was “stronger”.

“Example 34: DSPE-PEG2000-modified hTRA-8 Fullbody (Lys), reaction ratio 1:4” was tested, and the “apoptosis-inducing activity compared with that of secondary antibody-cross-linked hTRA-8” value (Jurkat cells) was “stronger”.

In the case of “Example 38: DSPE-PEG10000-modified hTRA-8 Fab′ (Cys)”, the “apoptosis-inducing activity compared with that of secondary antibody-cross-linked hTRA-8” value (Jurkat cells) is reported as “equivalent to or stronger”.

With “Example 40: Chol-PEG5000-modified hTRA-8 Fab′ (Cys)” the “apoptosis-inducing activity compared with that of secondary antibody-cross-linked hTRA-8” value (Jurkat cells) was “equivalent to or stronger”.

With “hTRA-8: antibody obtained by humanizing mouse anti-human DR5 antibody TRA-8; heavy chain SEQ ID NO: 1, light chain SEQ ID NO: 2” the “apoptosis-inducing activity (in words)” value [1] was “weak”, the “apoptosis-inducing activity (in words)” value (BxPC-3 cells; uncross-linked with secondary antibody) was “weak” and the “apoptosis-inducing activity (in words)” value [2] was “weak”.

For “Example 32: DSPE-PEG2000-modified hTRA-8 Fab′ (Cys), reaction ratio 1:4”, the “apoptosis-inducing activity compared with that of secondary antibody-cross-linked hTRA-8” value (Jurkat cells) was “stronger”.

In the case of “Example 35: DSPE-PEG2000-modified hTRA-8 Fullbody (Lys), reaction ratio 1:12”, the “apoptosis-inducing activity compared with that of secondary antibody-cross-linked hTRA-8” value (Jurkat cells) is reported as “stronger”.

“Example 37: DSPE-PEG2000-modified hTRA-8 Fab′ (Cys), reaction ratio 1:1” was tested, and the “apoptosis-inducing activity compared with that of secondary antibody-cross-linked hTRA-8” value (Jurkat cells) was “equivalent to or stronger” and the “apoptosis-inducing activity compared with that of secondary antibody-cross-linked hTRA-8” value (BxPC-3 cells) was “stronger”.

“Example 47: DSPE-PEG2000-modified hTRA-8 Fullbody (Lys), reaction ratio 1:1, large scale” was tested, and the “antitumor activity (rate of tumor growth, Dunnett test)” value [3] was “antitumor activity with a statistically significant difference”.

“Example 53: PEG5000-modified hTRA-8 Fullbody (Lys), hydrophobic molecule-free, water-soluble linker-modified antibody” was tested, and the “apoptosis-inducing activity (in words)” value (BxPC-3 cells; 1000, 100, 10, or 1 ng/ml) was “weak”.

In the case of “DSPE-PEG2000-modified MAB631 Fullbody of Example 49 (antibody)”, the EC50 (concentration exhibiting 50% cell viability), Jurkat cells, Test Example 20 [4] is reported as 0.025 ng/mL, the cell viability (Jurkat cells) [4] is reported as less than 10% and the EC50 relative to Ab, Jurkat cells, Test Example 20 ([4]; scale: fold) is reported as 58.4.

“Example 33: DSPE-PEG2000-modified hTRA-8 Fullbody (Lys), reaction ratio 1:1” was tested, and the “apoptosis-inducing activity compared with that of secondary antibody-cross-linked hTRA-8” value (Jurkat cells) was “stronger”.

For “Example 46: DSPE-PEG5000-modified hTRA-8 Fullbody (Lys), reaction ratio 1:2”, the “apoptosis-inducing activity compared with that of secondary antibody-cross-linked hTRA-8” value (Jurkat cells) was “stronger” and the “apoptosis-inducing activity compared with that of secondary antibody-cross-linked hTRA-8” value (BxPC-3 cells) was “stronger”.

For “Example 54: PEG2000-modified hTRA-8 Fab′ (Cys), hydrophobic molecule-free, water-soluble linker-modified antibody”, the “apoptosis-inducing activity (in words)” value (BxPC-3 cells; 1000, 100, 10, or 1 ng/ml) was “weak”.

“Example 39: DPPE-PEG2000-modified hTRA-8 Fab′ (Cys)” was tested, and the “apoptosis-inducing activity compared with that of secondary antibody-cross-linked hTRA-8” value (Jurkat cells) was “equivalent to or stronger”.

“Example 36: DSPE-PEG2000-modified hTRA-8 Fullbody (Cys), reaction ratio 1:10” was tested, and the “apoptosis-inducing activity compared with that of secondary antibody-cross-linked hTRA-8” value (Jurkat cells) was “stronger”.

B1: DSPE-PEG2000-modified hHFE7A Fullbody of Example 50 (antibody, human IgG1, kappa, V domains shown)
VH: QVQLVQSGAEVKKPGASVKVSCKASGYTFTSYWMQWVKQAPGQGLEWMGEIDPSDSYTNYNQKFKGKATLTVDTSTSTAYMELSSLRSEDTAVYYCARNRDYSNNWYFDVWGEGTLVTVSS
VL: EIVLTQSPGTLSLSPGERATLSCKASQSVDYDGDSYMNWYQQKPGQAPRLLIYAASNLESGIPDRFSGSGSGTDFTLTISRLEPEDFAVYYCQQSNEDPRTFGQGTKLEIKR
modifications: DSPE-PEG2000 on thiolated Lys (residue and chain not specified)
For B1, the “EC50 (concentration exhibiting 50% cell viability), Jurkat cells, Test Example 21” value (human Fas) was 6.94 ng/mL and the “EC50 relative to Ab, Jurkat cells, Test Example 21” value (human Fas) was > 144 fold (control antibody EC50 / modified antibody EC50).

B2: anti-human Fas antibody hHFE7A (humanized HFE7A), Fullbody (antibody, human IgG1, kappa, V domains shown)
VH: B1 VH
VL: B1 VL
B2 was tested, and the “Cross-linked Antibody EC50, Jurkat cells, Test Example 21” value (human Fas) was greater than 1000 ng/mL.
